This note sets out measurements from patent US11021521B2, “Pore-modified gram-negative bacteria and uses thereof” (priority 2015, dated 2021).

Each structure is given as a SMILES string. Values after ≈ are worked out from the molar mass of the structure shown. Values joined by “and” are separate entries in the source; they are usually repeats but may differ in a detail not shown here. Equal entries are not always repeated.

The test system of series [1] is P. aeruginosa PAO1-LAC (wild type, empty cassette). As to the kind of experiment: microbe, parasite or virus in culture. The format is cell-based. As to conditions: at least three independent measurements.
The subject of series [2] is P. aeruginosa PAO1-LAC-EcPore (hyperporinated). As to the kind of experiment: microbe, parasite or virus in culture. The format is cell-based.
In series [3] the test system is P. aeruginosa PaΔ3-LAC (efflux-deficient). Kind of series: microbe, parasite or virus in culture. The format is cell-based. As to conditions: at least three independent measurements.
Series [4] relates to P. aeruginosa PaΔ3-LAC-EcPore (efflux-deficient, hyperporinated). Kind of series: microbe, parasite or virus in culture. The format is cell-based.
Series [5] deals with B. thailandensis Bt-RHA (wild type, empty cassette). As to the kind of experiment: microbe, parasite or virus in culture. The format is cell-based.
Series [6] relates to B. thailandensis Bt-RHA-BtPore (hyperporinated). Kind of series: microbe, parasite or virus in culture. The series is classed as cell-based.
For series [7], the system named is B. thailandensis BtΔ2-RHA (efflux-deficient). Kind of series: microbe, parasite or virus in culture. The series is classed as cell-based.
Series [8] deals with B. cepacia Bc-RHA-BtPore (hyperporinated). Kind of series: microbe, parasite or virus in culture. As to conditions: Bc: Bc-RHA-BtPore vs parent. The format is cell-based.
Series [9] relates to A. baumannii Ab-ARA (wild type, empty cassette). Kind of series: microbe, parasite or virus in culture. The format is cell-based. The settings on record: at least three independent measurements.
Series [10] relates to A. baumannii Ab-ARA-EcPore (hyperporinated). As to the kind of experiment: microbe, parasite or virus in culture. The format is cell-based.
Series [11] deals with A. baumannii AbΔ3-ARA (efflux-deficient). As to the kind of experiment: microbe, parasite or virus in culture. The format is cell-based.
The test system of series [12] is A. baumannii AbΔ3-ARA-EcPore (efflux-deficient, hyperporinated). Kind of series: microbe, parasite or virus in culture. As to conditions: for MIC: AbΔ3-ARA-EcPore. The format is cell-based.
Series [13] deals with B. thailandensis cells (Bt-RHA and derivatives).
The test system of series [14] is A. baumannii cells (Ab-ARA and derivatives). Kind of series: Fluorescent probe uptake assay, A. baumannii strains. As to conditions: AbΔ3-ARA vs Ab-ARA, fluorescence.
The subject of series [15] is P. aeruginosa cells (PAO1-LAC and derivatives). As to the kind of experiment: Fluorescent probe uptake assay, P. aeruginosa strains. The settings on record: PΔ3-LAC vs PAO1-LAC, fluorescence.

As for `CCOc1ccc(-c2nc3ccc(-c4nc5ccc(N6CCN(C)CC6)cc5[nH]4)cc3[nH]2)cc1` [HT, Hoechst 33342], the MIC is over 64 µg/mL in [1]; 64 µg/mL (≈ 141 µM) in series [2] (PAO1-LAC-EcPore, at least three independent measurements); 16 µg/mL (≈ 35.4 µM) in series [3]; 2 µg/mL in series [4] (PaΔ3-LAC-EcPore, at least three independent measurements); 2.0 µM in series [4] (PΔ3-LAC-EcPore); over 64 µM in [5]. In addition, the MIC in series [6] is over 64 µM; in series [7] it was 1 µM (≈ 0.453 µg/mL); in [9] it was 25 µg/mL (≈ 55.2 µM); in [10] (Ab-ARA-EcPore, at least three independent measurements) it was 3.125 µg/mL (≈ 6.91 µM); in series [11] (AbΔ3-ARA, at least three independent measurements), 0.78 µg/mL (≈ 1.72 µM); in series [12], 0.025 to 0.05 µM. Besides, the MIC in series [12] (at least three independent measurements) was 0.025 µg/mL. Further, the “Fold decrease of MIC (potentiation) by hyperporination” value in series [2] (Pae: PAO1-LAC-EcPore vs parent) was 4 to 8 fold; in series [8], over 4 fold; in [10] (Abau: Ab-ARA-EcPore vs parent), 4 to 8 fold and 8 fold. The “Fold reduction of MIC by inactivation of efflux” value in [11] (Abau: AbΔ3-ARA vs Ab-ARA) is 32 fold. Moreover, in [12] (AbΔ3-ARA-EcPore vs Ab-ARA), the “Fold change of MIC by efflux inactivation plus hyperporination” value is 1000 fold. In addition, the “Change of intracellular accumulation of probe by inactivation of efflux” value in series [13] is reported as “up to 2 fold”; in series [14], “up to 2 fold”; in [15] it was “lower than those in the parent PAO1-LAC”.
